For one test, the target named is T1, human LXRα (Homo sapiens, UniProt Q13133).
T1 construct: human LXRα (aa 164 to 447); made in house; host or cells: E. coli BL21(pLysS)
T1 sequence (Q13133 164-447): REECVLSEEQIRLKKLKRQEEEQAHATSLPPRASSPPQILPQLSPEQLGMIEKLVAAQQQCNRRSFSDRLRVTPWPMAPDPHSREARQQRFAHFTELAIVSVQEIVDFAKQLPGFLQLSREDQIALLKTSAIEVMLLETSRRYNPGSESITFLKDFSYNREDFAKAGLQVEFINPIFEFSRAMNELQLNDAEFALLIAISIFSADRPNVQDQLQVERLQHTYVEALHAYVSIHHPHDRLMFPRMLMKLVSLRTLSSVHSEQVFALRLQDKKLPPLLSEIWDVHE
Description: Radioligand binding assay (scintillation proximity), LXRalpha. As to conditions: GST-LXRα-LBD on SPA beads, radioligand displacement. On the procedure:
(§1) Mammalian expression vectors were constructed to express full-length human LXRα and LXRβ. […] To accomplish this, the portions of the sequences encoding the LBDs were amplified from full-length clones by PCR and then subcloned into the plasmid vectors.
(§2) Induction, expression, and purification of GST-LBD fusion proteins were performed in E. coli strain BL21(pLysS) cells by standard methods (Ref: Current Protocols in Molecular Biology, Wiley Press, edited by Ausubel et al).
(§3) LXRα and LXRβ receptor binding were assayed in buffer consisting of 50 mM HEPES, pH 7.4, 10 mM NaCl, 5 mM MgCl2. For each 96-well reaction, 500 ng of GST-LXRα-LBD or 700 ng of GST-LXRβ-LBD fusion proteins were bound to 80 μg or 40 μg SPA beads (Pharmacia Amersham) respectively, in a final volume of 50 μl by shaking. The resulting slurry was incubated for 1 h at RT and centrifuged for 2 min at 1300×g. The supernatant containing unbound protein was removed, and the semi-dry pellet containing the receptor-coated beads was re-suspended in 50 μl of buffer. […] All binding assays were performed in 96-well plates and the amount of bound ligand was measured on a Packard TopCount using OptiPlates (Packard). […]
A general note: In a scintillation proximity assay essentially only radioactivity close to the scintillant gives light.

In another test the target is T2, human LXRβ (Homo sapiens, UniProt P55055).
T2 construct: human LXRβ (aa 155 to 460); made in house; host or cells: E. coli BL21(pLysS)
T2 sequence (P55055 155-460): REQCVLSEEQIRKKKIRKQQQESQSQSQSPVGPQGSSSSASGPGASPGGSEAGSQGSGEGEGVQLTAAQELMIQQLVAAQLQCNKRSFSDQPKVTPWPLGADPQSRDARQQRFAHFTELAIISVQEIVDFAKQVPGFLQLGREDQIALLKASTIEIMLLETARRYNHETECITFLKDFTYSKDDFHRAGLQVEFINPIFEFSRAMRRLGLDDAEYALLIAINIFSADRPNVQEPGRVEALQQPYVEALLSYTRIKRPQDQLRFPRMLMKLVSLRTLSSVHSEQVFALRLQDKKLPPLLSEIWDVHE
The experiment in a line: Radioligand binding assay (scintillation proximity), LXRbeta. As to conditions: GST-LXRβ-LBD on SPA beads, radioligand displacement. On the procedure:
as §1, §2, §3

The text below walks through data of patent publication US7906546B2, “Tetrahydrocarbazoles and derivatives” (Hoffmann-La Roche Inc., priority 2004, dated 2011).

As usually defined, the IC50 is the concentration needed to halve the response being measured. With `COC(=O)[C@@](C)([C@H]1CCc2c([nH]c3ccc(Cl)cc23)C1)S(=O)(=O)c1ccccc1` (racemic) [(RS,SR)-2-benzenesulfonyl-2-(6-chloro-2,3,4,9-tetrahydro-1H-carbazol-2-yl)-propionic acid methyl ester], the figures for the IC50 at human LXRα and at human LXRβ were 1600 nM and 270 nM, respectively.
The matching figures for `Cc1nnc([C@@](F)([C@@H]2Cc3[nH]c4ccc(Cl)cc4c3C2)S(=O)(=O)c2cccc(N(C)C)c2)o1` (racemic) [(RS, SR) {3-[(7-chloro-1,2,3,4-tetrahydro-cyclopenta[b]indol-2-yl)-fluoro-(5-methyl-[1,3,4]oxadiazol-2-yl)-methanesulfonyl]-phenyl}-dimethyl-amine]: 43 nM and 6 nM.
